The values below are quoted from earlier work in patent US10137085B2, “Nanoemulsion for transdermal delivery and method of making the same” (Nano and Advanced Materials Institute Limited, priority 2014, dated 2018).

Molecules are shown by their SMILES. Structures can show the parent of a compound that is named as a salt. Where two headings read alike, the source gives them in different places.

For data set [1] the following is noted: o/w microemulsion with oleyl alcohol and NMP, compared to aqueous solution.

`COc1ccc([C@@H]2Sc3ccccc3N(CCN(C)C)C(=O)[C@@H]2OC(C)=O)cc1` [diltiazem HCl]: the “enhancement of drug permeability” value in data set [1] is on record as 520 fold. As for `C[C@]12CC[C@@H]3c4ccc(O)cc4CC[C@H]3[C@@H]1CC[C@@H]2O` [estradiol], the “enhancement of drug permeability” value in data set [1] was 58 fold.

Turning to `CN(Cc1cnc2nc(N)nc(N)c2n1)c1ccc(C(=O)N[C@@H](CCC(=O)O)C(=O)O)cc1` [methotrexate], the “increase of permeation efficiency through skin” value is, setting by setting: (solid-in-oil nanodispersion vs control aqueous solution) “two- to three”; (solid-in-oil nanodispersion with urea as enhancer vs control aqueous solution, after 24 h) “approximately 8.8 fold”.
